# Literature values in patent US20060211660A1, “Combination therapy for topical application in the treatment of dry eye syndrome” (priority 2005, published 2006).
# Like-named read-outs stand apart in the source and are kept apart here.
# What was measured:
# [1] = for androgenic (virilizing) activity relative to standards: relative to standards (typically testosterone)
# [2] = for anabolic activity relative to standards: relative to standards (typically testosterone)
Compound,androgenic (virilizing) activity relative to standards [1],anabolic activity relative to standards [2],other results
C[C@]12CC[C@@H]3c4ccc(O)cc4CC[C@H]3[C@@H]1CC[C@@H]2O [17-β-estradiol],,,"improvement in corneal lens transmittance and autofluorescence (0.00025% drops every 6 hours, women already taking 2 mg estriol valerate daily by mouth): varying or marginal improvement"
CCC(=O)O[C@H]1CC[C@H]2[C@@H]3CCC4=CC(=O)CC[C@@H]4[C@H]3CC[C@]12C [19-nortestosterone propionate],decreased,unchanged,
C[C@]12CCC(=O)C[C@@H]1CC[C@@H]1[C@@H]2CC[C@]2(C)[C@@H](O)CC[C@@H]12 [dihydrotestosterone],unchanged,enhanced,
C[C@]12CC[C@@H]3c4ccc(O)cc4CC[C@H]3[C@@H]1C[C@@H](O)[C@@H]2O [estriol],,,"improvement in corneal lens transmittance and autofluorescence (post-menopausal patients, low systemic dose 0.25 mg per day): varying or marginal improvement"
C[C@]1(O)CC[C@H]2[C@@H]3CCC4=CC(=O)CC[C@]4(C)[C@@]3(F)[C@@H](O)C[C@@]21C [fluoxymesterone],augmented,,
"C[C@]12COC(=O)C[C@@H]1CC[C@@H]1[C@@H]2CC[C@@]2(C)[C@H]1CC[C@]2(C)O [oxandrolone, 17 alpha-methyl-17β-hydroxy-2-oxa-5 alpha-androstan-3-one]",decreased,increased,"androgenic activity, percent of that of methyltestosterone ([1]; relative to methyltestosterone): 24%; anabolic activity, percent of that of methyltestosterone ([2]; relative to methyltestosterone): 322%"
C[C@]12C/C(=C/O)C(=O)C[C@@H]1CC[C@@H]1[C@@H]2CC[C@@]2(C)[C@H]1CC[C@]2(C)O [oxymetholone],unchanged,enhanced,
C[C@]12Cc3c[nH]nc3C[C@@H]1CC[C@@H]1[C@@H]2CC[C@@]2(C)[C@H]1CC[C@]2(C)O [stanozolol],decreased,increased,
